Data as given in US20040208924A1, “Pharmaceutical tablet having a high api content” (priority 2001, published 2004).

Key:
[1] = Solid state stability of crystal forms; format: physicochemical; details: out of four crystal structures (forms 4, 5, 6, 7)
From the text: Due to the unique structure of the API material at least four different groups of crystal structures were observed (forms 4, 5, 6, 7) and analyzed by single crystal x-ray. […] Orthorhombic Form 6 consisted of a group of isostructural (1:1) solvates which accommodates solvents such as EtOAc, acetone and MEK. […] An exhaustive study of API crystallization on the feasibility of various solvents, control of polymorphs, and robustness of process concluded that the selected form could be consistently produced and kept stable in iPrOAc (or BuOAc)/Heptane (or Cyclohexane), following which a reproducible crystallization procedure in the iPrOAc/heptane solvent system was developed and implemented. This procedure, associated with the aminolysis of penultimate compound (Chemical Abstracts Systematic Name, (αS)-α-(Benzoylthio)-3,4,4-trimethyl-2,5-dioxo-1-imidazolidinebutanoyl-L-leucyl-N,3-dimethyl-L-valinamide), is successful in purging undesirable side products/impurities such as α,α′-Dithiobis[N-[1-[[[2,2-dimethyl-1-[(methylamino)carbonyl]propyl]amino]-carbonyl]-3-methylbutyl]-3,4,4-trimethyl-2,5-dioxo-1-imidazolidinebutanamide] which is the S,S′-dimer of the API. The crystallization procedure is further described in Table 1.

[2] = Compactability (slope of tensile strength versus compression pressure) of API blend compressed on an Instron; format: physicochemical
Procedure: In order to evaluate the compressibility and compactability of all API lots generated by modifying the crystallization process, a blend of 80% API, 19.5% microcrystalline cellulose and 0.5% magnesium stearate was prepared by mixing in a tumble mixer for 5 minutes. Each mixture was then compressed on an Instron (Universal Stress-Strain Analyzer) using a 0.5 inch diameter tooling (upper and lower punches and die) at a speed of 100 mm/min at compression forces of 5, 10, 15, 20 and 25 kN each for a replicate of three tablets. The tablet dimensions were measured using a digital Vernier calliper and the strength of the tablets were determined using an Erweka hardness tester. The volume of the tablet can be calculated from the tablet dimensions normalized for the true density of the mixture being compressed. The compressibility curves are generated by plotting the solid fraction of the tablet generated at each compression pressure versus the respective compression pressure. The area under such a curve represents the extent of volume reduction. The force required to break the tablets is normalized for the area of the tablet to obtain the tensile strength value. Slopes for profiles of tensile strength versus the compression pressure represent the compactability of the material while the area under the curve of tensile strength versus the solid fraction of the tablets represents the extent of compaction or toughness of the material.

matrix metalloproteinase = details: statement referring to WO 97/12902 and U.S. Pat. No. 5,981,490; cited from earlier work

product compactability ([2]; 50-g sample recrystallized using 1% AirJet-milled seeds) | product compactability ([2]; 50-g sample recrystallized using 1% ball-milled seeds) | product compactability ([2]; 50-g sample recrystallized using 1% seeds crystallized from a ground seeded batch) | compactability ([2]; crystallized with 1% ground seeds, without sonication) | SMILES | stability of the crystal structure in the solid state [1] | matrix metalloproteinase inhibition (matrix metalloproteinase)
 |  |  |  | CNC(=O)[C@@H](NC(=O)[C@H](CC(C)C)NC(=O)[C@@H](S)CCN1C(=O)N(C)C(C)(C)C1=O)C(C)(C)C [Form 4, N-[(2S)-2-Mercapto-1-oxo-4-(3,4,4-trimethyl-2,5-dioxo-1-imidazolidinyl)butyl]-L-leucyl-N,3-dimethyl-L-valinamide] | did not transform/decompose to other crystalline structures in the solid state | 
4.2 kPa/MPa | 5.9 Kpa/MPa | 5.3 kPa/MPa | 10.5 kPa/MPa | CNC(=O)[C@@H](NC(=O)[C@H](CC(C)C)NC(=O)[C@@H](S)CCN1C(=O)N(C)C(C)(C)C1=O)C(C)(C)C [API, N-[(2S)-2-Mercapto-1-oxo-4-(3,4,4-trimethyl-2,5-dioxo-1-imidazolidinyl)butyl]-L-leucyl-N,3-dimethyl-L-valinamide] |  | effective matrix metalloproteinase inhibitor
